Our source for the ED50 and IC50 values is ChEMBL document CHEMBL4325888, “Medicinal chemistry of vicinal diaryl scaffold: A mini review” (Eur J Med Chem, 2019).

Structures are written as SMILES.

For assay [1], the species on record is Rattus norvegicus. The assay can be described thus: animal or person. It counts as functional.
The target in assay [2] is T1, Prostaglandin G/H synthase 2 (Ovis aries, UniProt P79208).
T1 sequence (P79208 whole entry): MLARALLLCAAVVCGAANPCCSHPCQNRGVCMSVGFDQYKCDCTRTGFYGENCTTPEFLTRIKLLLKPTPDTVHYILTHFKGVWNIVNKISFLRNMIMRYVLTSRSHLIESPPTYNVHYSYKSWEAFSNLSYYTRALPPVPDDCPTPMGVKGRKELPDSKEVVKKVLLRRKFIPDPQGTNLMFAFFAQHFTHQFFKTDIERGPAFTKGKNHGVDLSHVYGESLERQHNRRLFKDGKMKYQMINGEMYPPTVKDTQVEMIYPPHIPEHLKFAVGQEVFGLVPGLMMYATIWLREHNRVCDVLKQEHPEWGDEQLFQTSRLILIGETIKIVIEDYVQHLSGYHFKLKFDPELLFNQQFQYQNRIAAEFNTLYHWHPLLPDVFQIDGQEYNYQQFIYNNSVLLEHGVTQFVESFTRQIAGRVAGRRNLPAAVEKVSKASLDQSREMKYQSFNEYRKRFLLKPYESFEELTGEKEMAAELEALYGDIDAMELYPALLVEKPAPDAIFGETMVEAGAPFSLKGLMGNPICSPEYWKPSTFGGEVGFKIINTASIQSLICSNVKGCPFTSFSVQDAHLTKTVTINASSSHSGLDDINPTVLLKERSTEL

Assay [3] deals with Tubulin. It counts as protein-complex assay, Homo sapiens.
Assay [4] has as its target T1, Prostaglandin G/H synthase 2. The source holds these as a separate data set.
The target in assay [5] is T2, Prostaglandin G/H synthase 1 (Mus musculus, UniProt P22437).
T2 sequence (P22437 whole entry): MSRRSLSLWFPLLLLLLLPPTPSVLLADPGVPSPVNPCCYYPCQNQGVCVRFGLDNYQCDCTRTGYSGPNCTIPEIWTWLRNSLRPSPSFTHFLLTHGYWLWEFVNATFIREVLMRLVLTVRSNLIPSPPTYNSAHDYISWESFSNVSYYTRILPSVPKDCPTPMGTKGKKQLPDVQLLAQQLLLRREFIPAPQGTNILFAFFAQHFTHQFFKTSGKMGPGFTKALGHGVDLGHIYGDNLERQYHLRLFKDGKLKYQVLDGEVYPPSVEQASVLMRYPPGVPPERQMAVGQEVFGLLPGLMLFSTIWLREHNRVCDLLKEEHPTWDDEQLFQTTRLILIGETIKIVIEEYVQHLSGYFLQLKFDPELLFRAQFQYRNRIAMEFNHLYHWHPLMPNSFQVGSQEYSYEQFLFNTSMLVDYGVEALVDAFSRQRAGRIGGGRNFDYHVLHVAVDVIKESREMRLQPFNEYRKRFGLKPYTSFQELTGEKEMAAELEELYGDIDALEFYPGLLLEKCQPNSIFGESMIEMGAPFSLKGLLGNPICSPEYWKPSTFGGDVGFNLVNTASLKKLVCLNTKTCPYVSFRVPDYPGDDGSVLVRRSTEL

Assay [6] concerns MCF7. The assay can be described thus: cells. Conditions: Homo sapiens. In kind it is functional, cell-based.
In assay [7] the test system is MCF7. As to the kind of experiment: cells. It counts as functional, cell-based. Conditions: Homo sapiens, MCF7, 48 h.

Regarding `CS(=O)(=O)c1ccc(-c2snnc2-c2ccc(F)cc2)cc1`, it took a dose of 0.7 mg/kg to reach the 50% effect level in assay [1] (ED50).
`CC1C(c2ccc(F)cc2)=C(c2ccc(S(C)(=O)=O)cc2)ON1C` (stereo not given) came in with an IC50 in assay [2] of 0.0316 µM.
Compound `COc1ccc([C@H]2OCO[C@@H]2c2cc(OC)c(OC)c(OC)c2)cc1O` showed an IC50 in assay [3] greater than 50 µM.
In the case of `[N-]=[N+]=Nc1ccc(C2=C(c3ccccc3)C(=O)OC2)cc1`, in assay [4], the IC50 came out at 0.196 µM.
For the compound `CC1(C)OC(c2ccc(S(N)(=O)=O)cc2)=C(c2cccc(F)c2)C1=O` [POLMACOXIB], the IC50 in assay [5] was determined as 0.003 µM.
In turn, `COc1ccc(-c2oc(O)nc2-c2cc(OC)c(OC)c(OC)c2)cc1N` gave an IC50 in assay [6] of 4.9 µM.
`Cc1ccc(-c2cc(C(F)(F)F)nn2-c2ccc(N=[N+]=[N-])cc2)cc1` gave an IC50 in assay [4] of 1.55 µM.
As to `COc1ccc([C@@H]2OCO[C@H]2c2cc(OC)c(OC)c(OC)c2)cc1O`, the IC50 in assay [3] was 4 to 6 µM.
In assay [6], `COc1ccc(-c2coc(=O)n2-c2cc(OC)c(OC)c(OC)c2)cc1N` displayed an IC50 of 1.8 µM.
The compound `COC(=O)c1ccc(-n2nc(C(F)(F)F)cc2-c2cc(OC)c(OC)c(OC)c2)cc1` yielded an IC50 in assay [7] of 1.3 µM.

As a reminder, the ED50 is the midpoint of the dose-response relation. Read a high ED50 as a need for a large dose. One may read the IC50 as the concentration at which inhibition is half-maximal. Low readings indicate inhibition by little substance, high ones a need for much substance.
